# In US12622968B2, “Formulation for oral delivery of proteins, peptides and small molecules with poor permeability” (R.P. Scherer Technologies, LLC, priority 2019, dated 2026):
# “And” between values parts separate entries of the source, which are not always exact repeats. Equal values may be shown once.
# Experiment: Single dose oral capsule pharmacokinetics of BHV-3500 in dogs (plasma LC-MS/MS)
# Type: in vivo, beagle dogs
# Parameters: key to t1/2 / Tmax / Cmax / AUC0-4 hr: X = no plasma exposure
# Conditions: for increase of plasma level versus no vehicle (Group 4): Group 5, 50 mg with Vehicle 6
# Protocol: The pharmacokinetics (PK) of BHV-3500 after a single oral capsule of BHV-3500 in dogs were investigated.
# After each dose, blood samples (approximately 3 mL from the jugular vein) for determination of plasma levels of BHV-3500 were obtained from of each dog at six time points (pre-dose; 15, 30, and 60 minutes and 2 and 4 hours post-dose. EDTA was used as the anticoagulant. Plasma samples were frozen at approximately −70′C until analyzed.
# For the determination of BHV-3500 in plasma, a 50 μL aliquot from each sample was transferred into the appropriate well of a 96-well plate to which 10 μL of 50% acetonitrile (ACN) in water was added, followed by 250 μL of internal standard solution (10 ng/mL BHV-3500-d8 in ACN). After sealing the plate and vortexing for approximately 5 minutes, the plate was centrifuged at 4,000 rpm for 10 minutes at 4±4° C. A portion (100 μL) of the resulting supernatant was transferred to into the appropriate well (containing 300 μL 0.15% formic acid in water) of another 96-well plate. This plate was sealed and its contents mixed prior to instrumental analysis.
# Freshly prepared BHV-3500 standard curves and QC samples were analyzed along with the study samples. Instrument calibrators were prepared by adding 10 μL of a stock BHV-3500 solution to 50 μL of blank dog plasma. Blank dog plasma was sourced from BioIVT (Hicksville, NY) and stored frozen at −20° C. Nominal calibrator concentrations ranged from 2.00 to 200 ng/mL. QC samples were prepared at concentrations of 6.00, 50.0 and 150 ng/mL. Calibrators and QC samples were processed for analysis following the extraction procedure described above.
# Calibrator, QC and study samples were analyzed under LC-S/MS instrument conditions detailed in Table 7.
# Calibration curves were calculated from the linear regression (weighting factor of 1/x2) of the analyte to internal standard peak area ratios versus the analyte concentrations. Concentrations of analyte in the samples were determined using the peak area ratios and the regression parameters of the calibration curves.
# Individual animal plasma BHV-3500 concentration data at scheduled (nominal) sampling times were analyzed using the non-compartmental model f r extravascular administration with Phoenix WinNonlin software (Version 8.1; Certara, Princeton, NJ).
# Elimination rate constant values (λz) were calculated by log-linear regression on data points of the terminal phase (using Phoenix WinNonlin's Best Fit Lambda Z Calculation Method option) when allowed by the data; the plasma elimination half-life (t1/2) was calculated as ln(2)/λz. Area under the plasma concentration-time curve values from time zero to the concentration at the 4 hour time point (AUC0-4 hr) were calculated by the linear-up/log-down trapezoidal rule.
# Nominal dose levels were used for PK analysis. The PK parameters listed below were evaluated (as applicable and when allowed by the data). • Elimination half-life (t1/2) • Time of occurrence of maximum plasma concentration (Tmax) • Maximum plasma concentration (Cmax) • Area under plasma concentration-time curve [0 to the 4 hour time point; AUC0-4hr]
# [1] = Group 1, oral capsule, 20 mg BHV-3500, no vehicle, average
# [2] = Group 1, oral capsule, 20 mg BHV-3500, no vehicle, median
# [3] = Group 3, oral capsule, 20 mg BHV-3500 in 25 mg DDM, individual dogs
# [4] = Group 5, oral capsule, 50 mg BHV-3500 in 900 mg vehicle of Formulation 2 (SEDDS excipients), individual dogs
structure (smiles),measurement,setting,value
"Cc1cc(C[C@@H](NC(=O)N2CCC(c3cc4ccccc4[nH]c3=O)CC2)C(=O)N2CCN(C3CCN(C)CC3)CC2)cc2cn[nH]c12 [BHV-3500, (R)—N-(3-(7-methyl-1H indazol-5-yl)-1-(4-(1-methylpiperidin-4-yl)piperazin-1-yl)-1-oxopropan-2-yl)-4-(2-oxo-1,2 dihydroquinolin-3-yl)piperidine-1-carboxamide]",plasma levels at all time points,"Group 1, oral capsule, 20 mg BHV-3500, no vehicle",BQL (BQL = below quantitation limit (2.0 ng/mL))
same,BHV-3500 Concentration in Dog Plasma,"Group 1, oral capsule, 20 mg BHV-3500, no vehicle, 0.25 h post-dose, average",BQL (BQL = below quantitation limit (2.0 ng/mL))
same,BHV-3500 Concentration in Dog Plasma,"Group 1, oral capsule, 20 mg BHV-3500, no vehicle, 0.25 h post-dose, individual dogs",BQL (BQL = below quantitation limit (2.0 ng/mL))
same,BHV-3500 Concentration in Dog Plasma,"Group 1, oral capsule, 20 mg BHV-3500, no vehicle, 0.5 h post-dose, average",BQL (BQL = below quantitation limit (2.0 ng/mL))
same,BHV-3500 Concentration in Dog Plasma,"Group 1, oral capsule, 20 mg BHV-3500, no vehicle, 0.5 h post-dose, individual dogs",BQL (BQL = below quantitation limit (2.0 ng/mL))
same,BHV-3500 Concentration in Dog Plasma,"Group 1, oral capsule, 20 mg BHV-3500, no vehicle, 1 h post-dose, average",BQL (BQL = below quantitation limit (2.0 ng/mL))
same,BHV-3500 Concentration in Dog Plasma,"Group 1, oral capsule, 20 mg BHV-3500, no vehicle, 1 h post-dose, individual dogs",BQL (BQL = below quantitation limit (2.0 ng/mL))
same,BHV-3500 Concentration in Dog Plasma,"Group 1, oral capsule, 20 mg BHV-3500, no vehicle, 2 h post-dose, average",BQL (BQL = below quantitation limit (2.0 ng/mL))
same,BHV-3500 Concentration in Dog Plasma,"Group 1, oral capsule, 20 mg BHV-3500, no vehicle, 2 h post-dose, individual dogs",BQL (BQL = below quantitation limit (2.0 ng/mL))
same,BHV-3500 Concentration in Dog Plasma,"Group 1, oral capsule, 20 mg BHV-3500, no vehicle, 4 h post-dose, average",BQL (BQL = below quantitation limit (2.0 ng/mL))
same,BHV-3500 Concentration in Dog Plasma,"Group 1, oral capsule, 20 mg BHV-3500, no vehicle, 4 h post-dose, individual dogs",BQL (BQL = below quantitation limit (2.0 ng/mL))
same,AUC0-4 hr,[1],X
same,Cmax,[1],X
same,Tmax,[2],X
same,t1/2,[2],X
same,BHV-3500 Concentration in Dog Plasma,"Group 2, oral capsule, 20 mg BHV-3500 in 900 mg vehicle of Formulation 2 (SEDDS excipients), 0.25 h post-dose, average",BQL (BQL = below quantitation limit (2.0 ng/mL))
same,BHV-3500 Concentration in Dog Plasma,"Group 2, oral capsule, 20 mg BHV-3500 in 900 mg vehicle of Formulation 2 (SEDDS excipients), 0.25 h post-dose, individual dogs",BQL (BQL = below quantitation limit (2.0 ng/mL))
same,BHV-3500 Concentration in Dog Plasma,"Group 2, oral capsule, 20 mg BHV-3500 in 900 mg vehicle of Formulation 2 (SEDDS excipients), 0.5 h post-dose, average",BQL (BQL = below quantitation limit (2.0 ng/mL))
same,BHV-3500 Concentration in Dog Plasma,"Group 2, oral capsule, 20 mg BHV-3500 in 900 mg vehicle of Formulation 2 (SEDDS excipients), 0.5 h post-dose, individual dogs",BQL (BQL = below quantitation limit (2.0 ng/mL))
same,BHV-3500 Concentration in Dog Plasma,"Group 2, oral capsule, 20 mg BHV-3500 in 900 mg vehicle of Formulation 2 (SEDDS excipients), 1 h post-dose, individual dogs",BQL (BQL = below quantitation limit (2.0 ng/mL))
same,BHV-3500 Concentration in Dog Plasma,"Group 2, oral capsule, 20 mg BHV-3500 in 900 mg vehicle of Formulation 2 (SEDDS excipients), 2 h post-dose, individual dogs",BQL (BQL = below quantitation limit (2.0 ng/mL)) and 19.4 ng/mL and 8.94 ng/mL
same,BHV-3500 Concentration in Dog Plasma,"Group 2, oral capsule, 20 mg BHV-3500 in 900 mg vehicle of Formulation 2 (SEDDS excipients), 4 h post-dose, individual dogs",BQL (BQL = below quantitation limit (2.0 ng/mL))
same,Cmax,"Group 2, oral capsule, 20 mg BHV-3500 in 900 mg vehicle of Formulation 2 (SEDDS excipients), individual dogs",19.4 ng/mL and 8.94 ng/mL
same,BHV-3500 Concentration in Dog Plasma,"Group 3, oral capsule, 20 mg BHV-3500 in 25 mg DDM, 0.25 h post-dose, average",BQL (BQL = below quantitation limit (2.0 ng/mL))
same,BHV-3500 Concentration in Dog Plasma,"Group 3, oral capsule, 20 mg BHV-3500 in 25 mg DDM, 0.25 h post-dose, individual dogs",BQL (BQL = below quantitation limit (2.0 ng/mL))
same,BHV-3500 Concentration in Dog Plasma,"Group 3, oral capsule, 20 mg BHV-3500 in 25 mg DDM, 0.5 h post-dose, individual dogs",BQL (BQL = below quantitation limit (2.0 ng/mL))
same,BHV-3500 Concentration in Dog Plasma,"Group 3, oral capsule, 20 mg BHV-3500 in 25 mg DDM, 1 h post-dose, individual dogs",BQL (BQL = below quantitation limit (2.0 ng/mL))
same,BHV-3500 Concentration in Dog Plasma,"Group 3, oral capsule, 20 mg BHV-3500 in 25 mg DDM, 2 h post-dose, individual dogs",9.60 ng/mL and BQL (BQL = below quantitation limit (2.0 ng/mL)) and 28.2 ng/mL
same,BHV-3500 Concentration in Dog Plasma,"Group 3, oral capsule, 20 mg BHV-3500 in 25 mg DDM, 4 h post-dose, individual dogs",BQL (BQL = below quantitation limit (2.0 ng/mL))
same,Cmax,[3],9.60 ng/mL and 14.0 ng/mL and 28.2 ng/mL
same,Tmax,[3],30 min
same,BHV-3500 Concentration in Dog Plasma,"Group 4, oral capsule, 50 mg BHV-3500, no vehicle, 0.25 h post-dose, average",BQL (BQL = below quantitation limit (2.0 ng/mL))
same,BHV-3500 Concentration in Dog Plasma,"Group 4, oral capsule, 50 mg BHV-3500, no vehicle, 0.25 h post-dose, individual dogs",BQL (BQL = below quantitation limit (2.0 ng/mL))
same,BHV-3500 Concentration in Dog Plasma,"Group 4, oral capsule, 50 mg BHV-3500, no vehicle, 0.5 h post-dose, average",BQL (BQL = below quantitation limit (2.0 ng/mL))
same,BHV-3500 Concentration in Dog Plasma,"Group 4, oral capsule, 50 mg BHV-3500, no vehicle, 0.5 h post-dose, individual dogs",BQL (BQL = below quantitation limit (2.0 ng/mL))
same,BHV-3500 Concentration in Dog Plasma,"Group 4, oral capsule, 50 mg BHV-3500, no vehicle, 1 h post-dose, individual dogs",4.25 ng/mL and 3.55 ng/mL
same,BHV-3500 Concentration in Dog Plasma,"Group 4, oral capsule, 50 mg BHV-3500, no vehicle, 2 h post-dose, individual dogs",4.35 ng/mL and 6.61 ng/mL
same,BHV-3500 Concentration in Dog Plasma,"Group 4, oral capsule, 50 mg BHV-3500, no vehicle, 4 h post-dose, average",BQL (BQL = below quantitation limit (2.0 ng/mL))
same,BHV-3500 Concentration in Dog Plasma,"Group 4, oral capsule, 50 mg BHV-3500, no vehicle, 4 h post-dose, individual dogs",BQL (BQL = below quantitation limit (2.0 ng/mL))
same,Cmax,"Group 4, oral capsule, 50 mg BHV-3500, no vehicle, individual dogs",4.35 ng/mL and 6.61 ng/mL
same,increase of plasma level versus no vehicle (Group 4),1 hour post-dose,3.4 ×
same,increase of plasma level versus no vehicle (Group 4),2 hours post-dose,6.6 ×
same,BHV-3500 Concentration in Dog Plasma,"Group 5, oral capsule, 50 mg BHV-3500 in 900 mg vehicle of Formulation 2 (SEDDS excipients), 0.25 h post-dose, average",BQL (BQL = below quantitation limit (2.0 ng/mL))
same,BHV-3500 Concentration in Dog Plasma,"Group 5, oral capsule, 50 mg BHV-3500 in 900 mg vehicle of Formulation 2 (SEDDS excipients), 0.25 h post-dose, individual dogs",BQL (BQL = below quantitation limit (2.0 ng/mL))
same,BHV-3500 Concentration in Dog Plasma,"Group 5, oral capsule, 50 mg BHV-3500 in 900 mg vehicle of Formulation 2 (SEDDS excipients), 0.5 h post-dose, average",BQL (BQL = below quantitation limit (2.0 ng/mL))
same,BHV-3500 Concentration in Dog Plasma,"Group 5, oral capsule, 50 mg BHV-3500 in 900 mg vehicle of Formulation 2 (SEDDS excipients), 0.5 h post-dose, individual dogs",BQL (BQL = below quantitation limit (2.0 ng/mL))
same,BHV-3500 Concentration in Dog Plasma,"Group 5, oral capsule, 50 mg BHV-3500 in 900 mg vehicle of Formulation 2 (SEDDS excipients), 1 h post-dose, individual dogs",6.19 ng/mL and 5.55 ng/mL and 22.7 ng/mL
same,BHV-3500 Concentration in Dog Plasma,"Group 5, oral capsule, 50 mg BHV-3500 in 900 mg vehicle of Formulation 2 (SEDDS excipients), 2 h post-dose, individual dogs",13.8 ng/mL and 6.90 ng/mL and 101 ng/mL
same,BHV-3500 Concentration in Dog Plasma,"Group 5, oral capsule, 50 mg BHV-3500 in 900 mg vehicle of Formulation 2 (SEDDS excipients), 4 h post-dose, individual dogs",6.88 ng/mL and 2.62 ng/mL and 14.4 ng/mL
same,AUC0-4 hr,[4],32.8 ng·h/mL and 17.7 ng·h/mL and 161 ng·h/mL
same,Cmax,[4],13.8 ng/mL and 6.90 ng/mL and 101 ng/mL
same,BHV-3500 Concentration in Dog Plasma,"Group 6, oral capsule, 50 mg BHV-3500 in 25 mg DDM, 0.25 h post-dose, average",BQL (BQL = below quantitation limit (2.0 ng/mL))
same,BHV-3500 Concentration in Dog Plasma,"Group 6, oral capsule, 50 mg BHV-3500 in 25 mg DDM, 0.25 h post-dose, individual dogs",BQL (BQL = below quantitation limit (2.0 ng/mL))
same,BHV-3500 Concentration in Dog Plasma,"Group 6, oral capsule, 50 mg BHV-3500 in 25 mg DDM, 0.5 h post-dose, average",BQL (BQL = below quantitation limit (2.0 ng/mL))
same,BHV-3500 Concentration in Dog Plasma,"Group 6, oral capsule, 50 mg BHV-3500 in 25 mg DDM, 0.5 h post-dose, individual dogs",BQL (BQL = below quantitation limit (2.0 ng/mL))
same,BHV-3500 Concentration in Dog Plasma,"Group 6, oral capsule, 50 mg BHV-3500 in 25 mg DDM, 1 h post-dose, individual dogs",BQL (BQL = below quantitation limit (2.0 ng/mL))
